{
  "source": "paper PMC12203697",
  "about": "“Bioactive constituents from the edible seaweed Halymenia hawaiiana (Rhodophyta)” (Pharmaceutical Biology, 2025)",
  "test": "Ferric-reducing antioxidant power (FRAP) assay",
  "protocol": "The FRAP assay was used to evaluate antioxidant activity based on the ability of the sample to reduce Fe^3+-TPTZ (2,4,6-tris(2-pyridyl)-S-triazine) to Fe^2+-TPTZ (Benzie and Strain [1996]). This reduction results in a color change from colorless to blue. The absorbance was measured at 593 nm using a Microplate Reader (BioTek ELx800 Instruments Inc. Winooski, Vermont, USA) with the Gen 5 software for FRAP value calculations. A ferrous sulfate heptahydrate (FeSO4 · 7H2O) (Cat. No. 215422, Sigma-Aldrich, USA) standard curve, ranging from 1000 µM to 50 µM, was prepared for the assay. The FRAP reagent consists of 300 mM sodium acetate buffer (pH 3.6) (Cat. No. 90358, Sigma-Aldrich, USA), 10 mM TPTZ solution (Cat. No. T1253, Sigma-Aldrich, USA), and 20 mM ferric (III) chloride hexahydrate (FeCl3 · 6H2O) (Cat. No. 236489, Sigma-Aldrich, USA) in a 10:1:1 ratio, respectively, and heated to 37 °C for ten minutes before use. A blank was measured at 593 nm with 150 µL FRAP reagent added to each well of a 96-well microtiter plate. Samples (20 µL of each sample) (1, 0.5, 0.25 mg/mL) and ascorbic acid (Sigma-Aldrich, Cat. No. A4403) positive control (1 mg/mL) were added in triplicates. Reducing capacity was expressed by FRAP values in an µM FeSO4/µg sample unit.",
  "data": [
    {"smiles": "Nc1ccn([C@H]2C[C@H](O)[C@@H](CO)O2)c(=O)n1", "note": "[Compound 1, deoxycytidine]", "values": [
      {"measurement": "FRAP", "setting": "µM FeSO4/µg sample", "result": "0.41 ± 0.03", "unit": "µM/µg"}
    ]},
    {"smiles": "CC(C)CCC[C@@H](C)[C@H]1CCC2[C@@]34C=C[C@]5(C[C@@H](O)CC[C@]5(C)C3CC[C@@]21C)OO4", "note": "(stereo partly drawn) [Compound 10, 7-dehydrochoresterol peroxide]", "values": [
      {"measurement": "FRAP", "setting": "FeSO4 standard curve", "result": 204.07, "unit": "µM"},
      {"measurement": "FRAP", "setting": "µM FeSO4/µg sample", "result": "2.55 ± 0.02", "unit": "µM/µg"}
    ]}
  ]
}
